The values below come from ChEMBL document CHEMBL5291721, “A preclinical secondary pharmacology resource illuminates target-adverse drug reaction associations of marketed drugs” (Nat Commun, 2023).

Among the targets are Adenosine receptor A2a (Homo sapiens, UniProt P29274); Motilin receptor (Homo sapiens, UniProt O43193); Histamine H1 receptor (Homo sapiens, UniProt P35367).
Experiment [1] deals with T1, 5-hydroxytryptamine receptor 2C (Homo sapiens, UniProt P28335).
T1 sequence (P28335 whole entry): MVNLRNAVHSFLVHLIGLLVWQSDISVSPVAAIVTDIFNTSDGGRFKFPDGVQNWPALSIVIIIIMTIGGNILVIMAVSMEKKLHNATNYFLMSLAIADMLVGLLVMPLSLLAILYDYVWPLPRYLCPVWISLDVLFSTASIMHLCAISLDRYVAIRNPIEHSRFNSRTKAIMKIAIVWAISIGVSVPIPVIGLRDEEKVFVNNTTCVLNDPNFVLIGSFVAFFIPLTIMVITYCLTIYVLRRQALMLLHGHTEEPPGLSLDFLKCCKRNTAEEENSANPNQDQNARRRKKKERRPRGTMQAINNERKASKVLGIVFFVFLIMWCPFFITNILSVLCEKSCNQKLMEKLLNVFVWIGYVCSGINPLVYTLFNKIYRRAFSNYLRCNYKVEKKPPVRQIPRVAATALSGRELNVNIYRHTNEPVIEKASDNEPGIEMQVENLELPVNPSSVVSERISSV

For experiment [2], the target named is Kappa-type opioid receptor (Homo sapiens, UniProt P41145).
Kappa-type opioid receptor, sequence (P41145 whole entry): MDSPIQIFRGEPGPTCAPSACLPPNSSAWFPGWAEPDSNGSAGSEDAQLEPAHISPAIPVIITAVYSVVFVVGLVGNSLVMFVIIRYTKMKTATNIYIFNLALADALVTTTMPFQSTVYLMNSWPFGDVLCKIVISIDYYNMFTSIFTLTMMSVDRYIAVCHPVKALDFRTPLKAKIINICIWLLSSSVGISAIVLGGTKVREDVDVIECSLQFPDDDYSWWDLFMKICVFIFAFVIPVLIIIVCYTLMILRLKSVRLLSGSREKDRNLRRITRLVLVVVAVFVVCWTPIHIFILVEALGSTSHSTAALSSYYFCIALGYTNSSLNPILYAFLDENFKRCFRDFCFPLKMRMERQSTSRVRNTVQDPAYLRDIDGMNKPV
Another experiment deals with T2, Adenosine receptor A3 (Homo sapiens, UniProt P0DMS8).
T2 sequence (P0DMS8 whole entry): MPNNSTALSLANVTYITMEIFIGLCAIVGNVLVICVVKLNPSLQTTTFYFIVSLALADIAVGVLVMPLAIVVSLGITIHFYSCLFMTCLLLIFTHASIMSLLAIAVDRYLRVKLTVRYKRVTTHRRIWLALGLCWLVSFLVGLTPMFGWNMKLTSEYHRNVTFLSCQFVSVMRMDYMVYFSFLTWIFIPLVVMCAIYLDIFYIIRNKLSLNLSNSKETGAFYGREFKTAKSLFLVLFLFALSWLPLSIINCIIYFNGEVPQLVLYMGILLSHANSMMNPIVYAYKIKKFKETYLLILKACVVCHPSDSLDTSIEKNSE

Experiment [3] has as its target T3, Gamma-aminobutyric acid receptor subunit alpha-1 (Rattus norvegicus, UniProt P62813). The class given is functional.
The target of experiment [4] is Neuronal acetylcholine receptor subunit alpha-4 (Homo sapiens, UniProt P43681).
Neuronal acetylcholine receptor subunit alpha-4, sequence (P43681 whole entry): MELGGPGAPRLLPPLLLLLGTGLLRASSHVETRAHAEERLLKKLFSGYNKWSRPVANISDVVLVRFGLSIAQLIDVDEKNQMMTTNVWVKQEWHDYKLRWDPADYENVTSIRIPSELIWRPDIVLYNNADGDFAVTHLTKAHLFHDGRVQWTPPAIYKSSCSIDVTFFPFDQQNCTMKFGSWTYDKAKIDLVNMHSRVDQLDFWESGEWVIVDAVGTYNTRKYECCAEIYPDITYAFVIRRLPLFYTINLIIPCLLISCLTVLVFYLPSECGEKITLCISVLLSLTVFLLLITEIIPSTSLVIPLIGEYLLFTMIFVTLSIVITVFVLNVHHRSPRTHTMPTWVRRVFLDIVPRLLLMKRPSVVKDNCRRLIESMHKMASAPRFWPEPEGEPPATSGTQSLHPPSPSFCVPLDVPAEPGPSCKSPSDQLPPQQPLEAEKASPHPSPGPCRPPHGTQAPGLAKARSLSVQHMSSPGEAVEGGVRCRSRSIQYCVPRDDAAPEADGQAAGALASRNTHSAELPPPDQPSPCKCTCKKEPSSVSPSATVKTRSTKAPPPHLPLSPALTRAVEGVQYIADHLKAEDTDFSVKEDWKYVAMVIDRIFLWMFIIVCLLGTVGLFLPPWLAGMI
Another experiment concerns the target T4, B2 bradykinin receptor (Homo sapiens, UniProt P30411).
T4 sequence (P30411 whole entry): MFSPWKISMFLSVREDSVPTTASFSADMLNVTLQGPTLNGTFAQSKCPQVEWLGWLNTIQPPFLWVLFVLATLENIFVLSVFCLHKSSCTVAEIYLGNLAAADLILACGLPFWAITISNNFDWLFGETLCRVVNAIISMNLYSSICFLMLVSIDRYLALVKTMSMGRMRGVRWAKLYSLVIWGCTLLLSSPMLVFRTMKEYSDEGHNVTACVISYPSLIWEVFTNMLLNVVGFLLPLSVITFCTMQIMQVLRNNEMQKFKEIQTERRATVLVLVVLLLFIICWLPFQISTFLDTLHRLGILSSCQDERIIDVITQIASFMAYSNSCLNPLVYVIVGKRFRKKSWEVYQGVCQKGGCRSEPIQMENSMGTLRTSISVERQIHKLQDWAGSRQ

For experiment [5], the target named is T3, Gamma-aminobutyric acid receptor subunit alpha-1.
In experiment [6] the target is Beta-2 adrenergic receptor (Homo sapiens, UniProt P07550).
Beta-2 adrenergic receptor, sequence (P07550 whole entry): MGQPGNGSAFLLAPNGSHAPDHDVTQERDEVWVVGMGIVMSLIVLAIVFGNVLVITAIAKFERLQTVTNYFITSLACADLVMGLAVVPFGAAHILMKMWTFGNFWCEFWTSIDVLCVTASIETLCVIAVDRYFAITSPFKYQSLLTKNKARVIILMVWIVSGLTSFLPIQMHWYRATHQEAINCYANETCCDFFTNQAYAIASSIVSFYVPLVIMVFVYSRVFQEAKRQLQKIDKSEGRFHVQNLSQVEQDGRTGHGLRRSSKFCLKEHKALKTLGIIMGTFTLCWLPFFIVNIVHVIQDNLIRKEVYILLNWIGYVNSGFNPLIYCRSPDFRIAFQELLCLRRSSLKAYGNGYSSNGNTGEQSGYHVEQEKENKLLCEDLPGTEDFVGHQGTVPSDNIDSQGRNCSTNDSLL
Experiment [7] addresses T5, Type-1 angiotensin II receptor (Homo sapiens, UniProt P30556).
T5 sequence (P30556 whole entry): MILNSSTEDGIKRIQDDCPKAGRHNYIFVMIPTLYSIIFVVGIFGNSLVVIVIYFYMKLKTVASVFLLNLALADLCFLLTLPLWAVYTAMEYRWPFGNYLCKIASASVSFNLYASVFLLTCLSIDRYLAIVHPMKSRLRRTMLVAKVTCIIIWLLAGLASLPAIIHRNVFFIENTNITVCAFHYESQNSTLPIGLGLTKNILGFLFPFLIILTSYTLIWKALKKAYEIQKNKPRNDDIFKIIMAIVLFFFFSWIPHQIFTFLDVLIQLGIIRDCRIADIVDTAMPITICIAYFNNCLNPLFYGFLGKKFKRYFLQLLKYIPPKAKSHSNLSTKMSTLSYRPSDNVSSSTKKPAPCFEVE

In experiment [8] the target is T6, Alpha-2C adrenergic receptor (Homo sapiens, UniProt P18825).
T6 sequence (P18825 whole entry): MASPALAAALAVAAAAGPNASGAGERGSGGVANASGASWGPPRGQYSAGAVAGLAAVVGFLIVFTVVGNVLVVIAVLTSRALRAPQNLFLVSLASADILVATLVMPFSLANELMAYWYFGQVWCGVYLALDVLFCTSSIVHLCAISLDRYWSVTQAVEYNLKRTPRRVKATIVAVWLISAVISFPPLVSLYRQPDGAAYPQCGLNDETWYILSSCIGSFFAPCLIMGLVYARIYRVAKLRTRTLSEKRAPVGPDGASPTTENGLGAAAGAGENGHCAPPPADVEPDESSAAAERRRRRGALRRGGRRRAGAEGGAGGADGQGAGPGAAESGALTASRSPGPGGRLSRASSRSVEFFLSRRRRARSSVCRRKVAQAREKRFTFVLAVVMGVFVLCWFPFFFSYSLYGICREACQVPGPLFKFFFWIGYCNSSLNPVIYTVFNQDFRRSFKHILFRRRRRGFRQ
The class given is functional.

The target in experiment [9] is T7, Alpha-2B adrenergic receptor (Homo sapiens, UniProt P18089).
T7 sequence (P18089 whole entry): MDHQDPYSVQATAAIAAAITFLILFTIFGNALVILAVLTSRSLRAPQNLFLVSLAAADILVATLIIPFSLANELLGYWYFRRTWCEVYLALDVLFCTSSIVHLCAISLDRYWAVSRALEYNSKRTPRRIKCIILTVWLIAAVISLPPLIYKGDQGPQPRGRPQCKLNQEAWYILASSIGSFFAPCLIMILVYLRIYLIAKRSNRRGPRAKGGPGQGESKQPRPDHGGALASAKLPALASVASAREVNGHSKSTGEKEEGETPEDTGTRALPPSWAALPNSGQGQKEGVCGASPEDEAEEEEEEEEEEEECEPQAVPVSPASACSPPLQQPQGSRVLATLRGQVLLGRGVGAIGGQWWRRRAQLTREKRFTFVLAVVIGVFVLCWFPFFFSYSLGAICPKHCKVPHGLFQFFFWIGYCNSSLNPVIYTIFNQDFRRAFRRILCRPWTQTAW
Also: assay procedure not described here.

Motilin receptor, sequence (O43193 whole entry): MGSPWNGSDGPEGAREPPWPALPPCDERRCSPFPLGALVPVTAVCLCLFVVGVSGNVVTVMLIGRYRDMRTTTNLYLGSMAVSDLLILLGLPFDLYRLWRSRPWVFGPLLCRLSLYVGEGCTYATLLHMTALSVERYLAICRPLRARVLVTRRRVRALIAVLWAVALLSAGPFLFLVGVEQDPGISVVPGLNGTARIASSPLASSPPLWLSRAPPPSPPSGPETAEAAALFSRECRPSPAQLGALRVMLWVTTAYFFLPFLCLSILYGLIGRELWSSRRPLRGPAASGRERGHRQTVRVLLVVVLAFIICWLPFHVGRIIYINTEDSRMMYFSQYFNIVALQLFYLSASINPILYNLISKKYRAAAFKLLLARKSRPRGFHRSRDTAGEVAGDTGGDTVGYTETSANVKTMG
Histamine H1 receptor, sequence (P35367 whole entry): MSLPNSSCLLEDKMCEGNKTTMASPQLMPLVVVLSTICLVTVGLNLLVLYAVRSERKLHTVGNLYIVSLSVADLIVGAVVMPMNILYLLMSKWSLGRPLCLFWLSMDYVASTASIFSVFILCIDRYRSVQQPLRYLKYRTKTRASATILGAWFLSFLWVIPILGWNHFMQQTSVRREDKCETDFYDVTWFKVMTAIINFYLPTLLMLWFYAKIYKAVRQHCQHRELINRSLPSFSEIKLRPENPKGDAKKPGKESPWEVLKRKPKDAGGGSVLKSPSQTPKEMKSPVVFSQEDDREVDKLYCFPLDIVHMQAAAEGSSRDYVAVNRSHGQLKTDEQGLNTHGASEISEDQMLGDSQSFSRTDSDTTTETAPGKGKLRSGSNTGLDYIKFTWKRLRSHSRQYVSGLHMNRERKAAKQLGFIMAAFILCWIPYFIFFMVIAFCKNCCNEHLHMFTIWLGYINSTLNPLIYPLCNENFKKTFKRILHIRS
Adenosine receptor A2a, sequence (P29274 whole entry): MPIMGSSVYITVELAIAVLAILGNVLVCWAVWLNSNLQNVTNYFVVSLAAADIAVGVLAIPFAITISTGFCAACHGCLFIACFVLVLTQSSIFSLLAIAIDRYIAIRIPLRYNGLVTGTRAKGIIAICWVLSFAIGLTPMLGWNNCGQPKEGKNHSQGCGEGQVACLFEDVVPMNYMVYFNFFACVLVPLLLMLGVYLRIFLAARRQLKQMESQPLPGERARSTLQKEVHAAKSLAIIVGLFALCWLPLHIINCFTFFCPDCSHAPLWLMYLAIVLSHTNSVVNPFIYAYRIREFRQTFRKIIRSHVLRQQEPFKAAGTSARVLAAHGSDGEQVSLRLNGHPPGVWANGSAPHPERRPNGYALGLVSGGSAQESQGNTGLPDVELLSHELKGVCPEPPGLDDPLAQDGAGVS
T3 sequence (P62813 whole entry): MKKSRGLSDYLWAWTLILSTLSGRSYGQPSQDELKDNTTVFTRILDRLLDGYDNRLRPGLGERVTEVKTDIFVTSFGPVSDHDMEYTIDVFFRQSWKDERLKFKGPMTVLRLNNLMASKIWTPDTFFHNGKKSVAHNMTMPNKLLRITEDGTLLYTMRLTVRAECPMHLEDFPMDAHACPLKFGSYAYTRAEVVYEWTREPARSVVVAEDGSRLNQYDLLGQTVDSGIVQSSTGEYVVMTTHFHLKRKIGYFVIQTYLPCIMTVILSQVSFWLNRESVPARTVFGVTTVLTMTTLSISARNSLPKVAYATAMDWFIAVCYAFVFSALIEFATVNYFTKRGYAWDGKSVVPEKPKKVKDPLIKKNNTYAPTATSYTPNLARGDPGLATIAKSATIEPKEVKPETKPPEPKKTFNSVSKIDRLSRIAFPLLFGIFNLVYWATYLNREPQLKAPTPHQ

In general, AC50 refers to the midpoint of the concentration-response curve, whichever way the signal moves. Read a low AC50 as greater potency. For `O=C(O)CCNC(=O)c1ccccc1` [BETAMIPRON], the AC50 (in experiment [1]; in [2]; on Adenosine receptor A3; on Adenosine receptor A2a; in [3]; in experiment [4]) was more than 30 µM in each case. Also, the AC50 (at B2 bradykinin receptor; on Motilin receptor; in experiment [5]; in experiment [6]; in [7]; in experiment [8]) was more than 30 µM each time.

As for `NC1CCN(c2nc3c(cc2F)c(=O)c(C(=O)O)cn3-c2ccc(F)cc2F)C1` (stereo not given) [TOSUFLOXACIN], the half-maximal activity concentration (AC50) (in [1]; in [2]; at Adenosine receptor A3; on Adenosine receptor A2a; in [3]; in [4]) was more than 30 µM in each case. For the same compound, the half-maximal activity concentration (AC50) (on B2 bradykinin receptor; on Motilin receptor; in experiment [6]; in experiment [7]; in experiment [8]) was more than 30 µM throughout.

With `O=C1CN=C(c2ccccc2)c2cc([N+](=O)[O-])ccc2N1` [NITRAZEPAM], the half-maximal activity concentration (AC50) in experiment [1] is more than 30 µM; in experiment [2] it was more than 10 µM; on Adenosine receptor A3, more than 10 µM; at Adenosine receptor A2a it was more than 10 µM; in [3], 0.022 µM; in [4], more than 10 µM. For the same compound, the AC50 was more than 10 µM at B2 bradykinin receptor; more than 10 µM on Motilin receptor; more than 10 µM in experiment [5]; more than 10 µM in experiment [6]; more than 30 µM in experiment [7]; more than 10 µM in experiment [8].

As to `CN(C(=O)c1c(O)c2ccccc2n(C)c1=O)c1ccccc1` [ROQUINIMEX], the concentration at half-maximal activity (AC50) (at Adenosine receptor A3; at Adenosine receptor A2a; in experiment [4]; on Histamine H1 receptor; in experiment [8]) was more than 30 µM throughout.

Take `CCN(CC)CCNC(=O)c1cc(S(C)(=O)=O)ccc1OC` [TIAPRIDE]: the half-maximal activity concentration (AC50) (in experiment [1]; in [2]; on Adenosine receptor A3; on Adenosine receptor A2a; in experiment [3]; in experiment [4]) was more than 30 µM throughout. For the same compound, the AC50 (on B2 bradykinin receptor; on Motilin receptor; in [5]; in experiment [6]; in [7]; in [8]) was more than 30 µM each time.

As for `Nc1cc(-c2ccncc2)c[nH]c1=O` [INAMRINONE], the concentration at half-maximal activity (AC50) was more than 30 µM in [1]; more than 10 µM in [2]; more than 30 µM on Adenosine receptor A3; more than 30 µM on Adenosine receptor A2a; more than 10 µM in experiment [3]; more than 10 µM in experiment [4]. Also, the concentration at half-maximal activity (AC50) was more than 30 µM on B2 bradykinin receptor; more than 10 µM at Motilin receptor; more than 10 µM in experiment [5]; more than 10 µM in experiment [6]; more than 30 µM in [7]; more than 10 µM in experiment [8].

As to `Cn1cnc2c(F)c(Nc3ccc(Br)cc3Cl)c(C(=O)NOCCO)cc21` [SELUMETINIB], the AC50 at Adenosine receptor A3 was more than 30 µM; on Adenosine receptor A2a, more than 30 µM; in experiment [4], more than 10 µM; at Histamine H1 receptor it was more than 10 µM; in experiment [6], more than 10 µM; in [8], more than 10 µM.

Regarding `CC(=O)[C@]1(O)Cc2c(O)c3c(c(O)c2[C@@H](O[C@H]2C[C@H](N)[C@H](O)[C@H](C)O2)C1)C(=O)c1ccccc1C3=O` [IDARUBICIN], the AC50 in experiment [1] is 9.3 µM; on Adenosine receptor A3, 20 µM; at Adenosine receptor A2a, more than 30 µM; in experiment [3], more than 30 µM; in experiment [4], more than 30 µM; at B2 bradykinin receptor, more than 10 µM. Moreover, the AC50 on Motilin receptor was more than 10 µM; in experiment [5], more than 30 µM; in experiment [6], more than 30 µM; in experiment [7] it was more than 30 µM.

As to `Oc1ccc2c(c1)[C@@]13CCCC[C@@]1(O)[C@@H](C2)N(CC1CCC1)CC3` [BUTORPHANOL], the AC50 in experiment [1] is more than 30 µM; in experiment [2] it was 0.025 µM; on Adenosine receptor A3, more than 30 µM; on Adenosine receptor A2a, more than 30 µM; in experiment [3], more than 30 µM; in experiment [4], more than 30 µM. The AC50 at B2 bradykinin receptor was more than 30 µM; in experiment [9], more than 30000 nM; at Histamine H1 receptor, more than 30 µM; at Motilin receptor it was more than 30 µM; in experiment [7] it was more than 30 µM; in experiment [8], more than 30 µM.

`COc1cc2ncnc(Nc3ccc(F)c(Cl)c3)c2cc1NC(=O)/C=C/CN1CCCCC1` [DACOMITINIB ANHYDROUS]: the AC50 was 21 µM on Adenosine receptor A3; more than 30 µM at Adenosine receptor A2a; more than 30 µM in experiment [4]; more than 30 µM at Histamine H1 receptor; 21 µM in experiment [8].

`CCN1CCCC1CNC(=O)c1cc(S(=O)(=O)CC)c(N)cc1OC` (stereo not given) [AMISULPRIDE]: the half-maximal activity concentration (AC50) (in experiment [1]; in [2]; on Adenosine receptor A3; at Adenosine receptor A2a; in [3]; in [4]) was more than 30 µM throughout. Moreover, the half-maximal activity concentration (AC50) at B2 bradykinin receptor was more than 30 µM; in [9], 1500 nM; at Histamine H1 receptor it was 30 µM; in experiment [5] it was more than 30 µM; in [7] it was more than 30 µM; in experiment [8], 0.71 µM.

In the case of `NC(=O)CN1CCCC1=O`, the AC50 (in experiment [1]; in [2]; at Adenosine receptor A3; at Adenosine receptor A2a; in [3]; in [4]) was more than 30 µM throughout. Moreover, the concentration at half-maximal activity (AC50) (at B2 bradykinin receptor; on Motilin receptor; in experiment [5]; in experiment [7]; in experiment [8]) was more than 30 µM each time.
